The record followed here is US5231091A, “Bis-arylphosphate ester antagonists of platelet activating factor” (priority 1992, dated 1993).

Structures are written as SMILES. Structures can show the parent of a compound that is named as a salt.

In general, IC50 refers to the midpoint of a concentration-inhibition curve.

One assay deals with LPS induced gut leakage. As to the kind of experiment: Endotoxin induced hemorragic lesions / LPS induced gut leakage in rats. Type of assay: in vivo, rat (male Wistar). As to conditions: for % of control leakage (K), IV LPS induced gut leakage: ± SEM; for protection against LPS induced gut damage: IV LPS. An excerpt: One of the main sites of LPS induced pathology in the rat and guinea pig is the gut, particularly the duodenum, small intestine and cecum. After LPS exposure hemorragic lesions develop within a few minutes and can involve most of the lumenal surface. The extent of these pathologies can be quantitated histologically or by measuring the amount of plasma proteins that have leaked into the lumen. The second method is much faster and can detect damage in the junctions between capillary or intestinal epithelial cells before gross lesions have developed. Hot tags have shown plasma leakage after LPS challenge using radiolabeled albumin as the probe. In our assay we have chosen to use a non-radioactive tagging method in which plasma albumin is labeled with Evan's blue dye and the lumenal leakage is determined spectrophotometricly.
Evan's blue dye: Sigma e-2129, made as a 1% w/v solution in saline which was filtered and kept refrigerated.
For each experiment fresh 3-[[3-[[hydroxy[2-methoxy-3-(tetradecyloxy)phenoxy]phosphinyl]oxy]phenyl]- methyl]-5-methyl-thiazolium, hydroxide, inner salt was sonicated into saline.
LPS solutions were made fresh for each experiment.
Male Wistar rats, obtained from Charles River, weighing 160-225 gm were maintained in accordance with ALAC standards for at least one week before use.
Food was withheld from the animals for 18 hours before the experiment to clear the intestine. The rats were dosed with 3-[[3-[[hydroxy[2-methoxy-3-(tetradecyloxy)phenoxy]phosphinyl]oxy]phenyl]methyl]-5-methyl-thiazolium, hydroxide, inner salt or saline ip, 4 ml/kg, 1/2 hour before challenge with 25 or 50 mg/kg LPS in the 1% dye at 10 ml/kg. One hour after the LPS insult the animals were sacrificed and the duodenum and initial 6-7 cm of the jejunum isolated. This segment was lavaged with 2 ml of normal saline with the fluid flowing into polyethylene tubes. The lavageate frequently contained mucous and in order to free the stained albumin the samples were sonicated vigorously and then centrifuged to clarify the fluid. The amount of dye was determined spectrophotometrically, using a Vmax microtiter plate reader using the end point mode at […].

A further assay has as its system LPS induced hypotension. Kind of assay: Endotoxin (LPS) induced hypotension in rats. Type of assay: in vivo, rat (male Wistar). As to conditions: anesthetized rats; 10 ug/kg intraarterially 5 minutes after LPS 15 mg/kg I.V. As to the method: Bacterial cell wall lipopolysaccharide from E. coli strain 0111:B4 (Sigma #L-2630) was dissolved in saline at a concentration of 3.75 mg/ml and administered to rats at 15 mg/kg I.V. Test compounds were dissolved in saline at 1 mg/ml, diluted to 10 ug/ml, and injected intraarterially at 1 ml/kg (10 ug/kg). Male wistar strain rats were obtained from Charles River Labs and maintained according to ALAC standards. They were anesthetized with 30 mg/kg pentobarbital ip with supplementation as needed. The throat was opened, the left carotid artery was cannulated with PE-10 tubing and the trachea cannulated with 0.100 O.D. tubing. Ventilation was maintained by a Harvard Apparatus small animal pump at a rate sufficient to nearly abolish spontaneous respiration.

Assay [1] deals with T1, PAF receptor (Homo sapiens, UniProt P25105).
T1 construct: Blood from healthy volunteers was collected; endogenous in cells; host or cells: human platelets (healthy volunteers)
T1 sequence (P25105 whole entry): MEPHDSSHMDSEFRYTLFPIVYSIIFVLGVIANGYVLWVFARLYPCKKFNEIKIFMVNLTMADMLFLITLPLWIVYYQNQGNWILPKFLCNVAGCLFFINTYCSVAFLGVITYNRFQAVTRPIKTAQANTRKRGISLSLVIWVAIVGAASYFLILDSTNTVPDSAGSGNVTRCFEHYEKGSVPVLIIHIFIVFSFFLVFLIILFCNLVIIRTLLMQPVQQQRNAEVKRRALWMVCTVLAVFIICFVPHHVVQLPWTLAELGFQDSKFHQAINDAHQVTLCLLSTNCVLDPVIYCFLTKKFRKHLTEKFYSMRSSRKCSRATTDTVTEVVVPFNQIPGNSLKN
As to the kind of experiment: Inhibition of PAF-induced aggregation in human platelet rich plasma. In kind it is cell-based. The conditions noted are these: PAF challenge 1E-6M, number of experiments in parentheses. Here is the method:
(§1) Test compounds were evaluated as PAF receptor antagonists in vitro by measuring inhibition of PAF (platelet activating factor) induced platelet aggregation. Platelet aggregation was measured by a modification of the method described in A. Wissner, et. al., J. Med. Chem., 27, 1174, 1984.
(§2) L-PAF was obtained from Calbiochem. A stock solution of 1-2 E-3M was prepared in 10% ethanol in water or 100% methanol and serial working dilutions were made using phosphate buffered saline (PBS). 1-2 E-3M stock solutions of test compounds were prepared in 100% methanol and serially diluted in PBS. All solutions were made up in plastic tubes, stored on ice and protected from heat and light. Solutions were prepared fresh or frozen at -20° C. and used within 48 hours.
Incubation mixtures consisted of 400 μl PRP, 50 μl of PBS diluent or test compound and 50 μl of PAF agonist. More specifically, 400 μl of PRP was stabilized in a cuvette for 1-2 minutes at 37° C. in the aggregometer to achieve a stable baseline, then 50 μl of PBS or test compound, was added and incubated for 5 minutes before addition of the challenge concentration of PAF (final concentration of 5E-8M or 1E-7M, as determined from the dose response curve for PAF for that experiment). Aggregation was monitored for 5 minutes. Samples containing test compound or diluent were run simultaneously for comparison. Test compounds were initially evaluated at a screening concentration of 1E-5M.
The recording equipment consisted of a dual channel Chronolog aggregometer connected to a dual channel 10 MV full scale deflection Omniscribe chart recorder (Houston Instruments). […] The bead suspension was used to set the 0% light transmission mark and clear water was used to set the 100% light transmission mark. These limits defined a full scale deflection. The aggregation traces were analyzed by a digitizing method (C. Kohler and B. Zoltan, J. Pharm. Methods, 12, 113, 1984) with x, y coordinate data stored in a computer file. A suitable program computed parameters of interest such as the magnitude of aggregation.
In some experiments, human PRP was used instead of rabbit PRP. Blood from healthy volunteers was collected in Vacutainers® containing the Na citrate diluent and processed in a manner similar to rabbit blood to obtain the PRP. For these experiments, the challenge concentration of PAF was 1E-6M.

In assay [2] the target is T2, PAF receptor (Oryctolagus cuniculus, UniProt G1TEI7).
T2 construct: endogenous in cells; host or cells: rabbit platelets (male New Zealand White)
T2 sequence (G1TEI7 1-342): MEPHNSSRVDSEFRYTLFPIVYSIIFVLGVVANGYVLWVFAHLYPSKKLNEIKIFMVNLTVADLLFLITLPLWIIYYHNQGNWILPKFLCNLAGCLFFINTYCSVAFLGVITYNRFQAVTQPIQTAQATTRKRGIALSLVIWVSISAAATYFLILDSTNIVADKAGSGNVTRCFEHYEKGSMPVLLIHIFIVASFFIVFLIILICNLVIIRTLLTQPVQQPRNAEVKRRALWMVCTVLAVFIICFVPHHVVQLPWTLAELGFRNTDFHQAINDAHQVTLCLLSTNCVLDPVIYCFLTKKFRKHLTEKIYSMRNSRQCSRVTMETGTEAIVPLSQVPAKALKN
As to the kind of experiment: Inhibition of PAF-induced aggregation in washed rabbit platelets. Type of assay: cell-based. As to conditions: PAF challenge 5E-9M, number of experiments in parentheses. Here is the method: as §1, §2
More specifically, […] for 1-2 minutes at 37° C. in the aggregometer to achieve a stable baseline, then 50 μl of PBS or test compound, was added and incubated for 5 minutes before addition of the challenge concentration of PAF (final concentration of 5E-8M or 1E-7M, as determined from the dose response curve for PAF for that experiment). Aggregation was monitored for 5 minutes. Samples containing test compound or diluent were run simultaneously for comparison. Test compounds were initially evaluated at a screening concentration of 1E-5M. […]

In the case of `CCCCCCCCCCCCCCOc1cccc(OP(=O)([O-])Oc2cccc(C[n+]3csc(C)c3)c2)c1OC` [3-[[3-[[Hydroxy[2-methoxy-3-(tetradecyloxy)phenoxy]-phosphinyl]oxy]phenyl]methyl]-5-methyl-thiazolium, hydroxide, inner salt], the “% of control leakage (K), IV LPS induced gut leakage” value in the assay with LPS induced gut leakage (0.125 mg/kg IP, Experiment 1) was 24 ± 15%; in the assay with LPS induced gut leakage (0.125 mg/kg IP, Experiment 2) it was 107 ± 27%; in the assay on LPS induced gut leakage (0.25 mg/kg IP, Experiment 1) it was 36 ± 23%; with LPS induced gut leakage (0.25 mg/kg IP, Experiment 2), 65 ± 15%; in the assay on LPS induced gut leakage (0.5 mg/kg IP, Experiment 1), 15 ± 10%; with LPS induced gut leakage (0.5 mg/kg IP, Experiment 2), 16 ± 9%. Moreover, the “% of control leakage (K), IV LPS induced gut leakage” value in the assay on LPS induced gut leakage (1 mg/kg IP, Experiment 1) amounted to 22 ± 15%; with LPS induced gut leakage (2 mg/kg IP, Experiment 1) it was 10 ± 10%; with LPS induced gut leakage (2 mg/kg IP, Experiment 2) it was 18 ± 24%; in the assay on LPS induced gut leakage (2 mg/kg IP, Experiment 3), 27 ± 11%; with LPS induced gut leakage (20 mg/kg IP, Experiment 1), 20 ± 2%; with LPS induced gut leakage (20 mg/kg IP, Experiment 2) it was 19 ± 31%. In the assay on LPS induced gut leakage (IP), the “activity seen at doses as low as” value is recorded as 1/2. The “doses as low as (able to reduce or eliminate damage produced by IV LPS)” value with LPS induced gut leakage (IP one hour before challenge) is given as 1/2. Moreover, the “protection against LPS induced gut damage” value is on record as “able to reduce or eliminate the damage produced by IV LPS” in the assay with LPS induced gut leakage (IP) and “very potent protection against the end point of gut pathophysiology” in the assay with LPS induced gut leakage (IP, listed as 3-[[3-[[hydroxy[2-methoxy-3-(tetradecyloxy)phenoxy]-phosphinyl]oxy]phenyl]-methy). Moreover, the “direct observation of the intestinal tract of LPS challenged protected animals” value in the assay on LPS induced gut leakage (LPS challenge) is on record as “nearly normal appearing guts”. Besides, in the assay on LPS induced gut leakage (Rattus norvegicus, ip, read-out: doses as low as (prevents the gut manifestations of endotoxin shock), rats), the minimal effective dose worked out at 0.25 mg/kg. Also, in the assay on LPS induced gut leakage (virtually all control animals had severe diarrhea), the “diarrhea in LPS challenged treated animals” value was “little or none”. The “% reversal of LPS induced hypotension (fall in mean arterial pressure)” value in the assay with LPS induced hypotension is 84%. The IC50 at PAF receptor [1] is 31 µM; on PAF receptor [2] it was 0.00549 µM.
